Like-named read-outs stand apart in the source and are kept apart here. Numbered stars: 1 amine (or outer) side, 2 acyl side, 3 side chain; on linkers, the order of the positions; unused ones are H or OH. Bridge positions count the residues as written; N and C are the ends. Square brackets hold non-standard residues; d marks the D form. Side chains are listed from the residue outwards. Peptide text beside a SMILES is read from it. * marks the point of attachment. C18 diacid = O=C(O)CCCCCCCCCCCCCCCCC(=O)*; γGlu = O=C(O)[C@H](CCC(=O)[*:2])N[*:1]; Aib = CC(C)(N)C(=O)O
How the values were obtained:
[1] = biological target: T1, human amylin receptor (calcitonin receptor co-expressed with receptor activity modifying protein, RAMP3) (hAMYR3) (Homo sapiens, UniProt O60896+P30988); experiment: cAMP production in 1321N1 cells with stable recombinant expression of human amylin receptor (hAMYR3); type: cell-based; details: for Ratio (selectivity hAMYR vs hCTR, ratio of EC50 values at the two receptors): EC50 hCTR / EC50 hAMYR3
T1 construct: expressed in transfected cells
T1 sequence (P30988 25-474): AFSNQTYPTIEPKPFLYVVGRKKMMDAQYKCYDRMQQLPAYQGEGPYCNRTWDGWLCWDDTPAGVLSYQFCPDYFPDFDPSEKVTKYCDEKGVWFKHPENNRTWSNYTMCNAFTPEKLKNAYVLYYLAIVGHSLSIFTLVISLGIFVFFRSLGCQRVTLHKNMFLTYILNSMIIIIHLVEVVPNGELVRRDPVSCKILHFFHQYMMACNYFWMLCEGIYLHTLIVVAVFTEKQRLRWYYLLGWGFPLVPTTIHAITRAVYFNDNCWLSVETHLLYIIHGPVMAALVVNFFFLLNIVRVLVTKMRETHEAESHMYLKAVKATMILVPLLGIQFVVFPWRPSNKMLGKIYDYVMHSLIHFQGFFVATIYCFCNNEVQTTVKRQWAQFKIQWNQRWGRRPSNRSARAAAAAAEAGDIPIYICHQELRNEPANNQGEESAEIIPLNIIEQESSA
T1 sequence (O60896 24-148 partner): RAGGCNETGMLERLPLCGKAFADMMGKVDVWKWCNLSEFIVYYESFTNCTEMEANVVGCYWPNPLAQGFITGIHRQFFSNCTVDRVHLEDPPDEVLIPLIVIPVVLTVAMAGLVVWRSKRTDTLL
How it was run: (§1)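 EC50 values come from 4-parameter logistic fits of HTRF cAMP signal, normalised to maximal calcitonin or amylin effect. Peptides were tested in duplicate for 30 min at RT in IBMX-containing (0.5 mM) BSA/HEPES buffer pH 7.4 on stable 1321N1 (human CTR, AMYR3) or HEK (rat CTR, AMYR3) lines.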

[2] = biological target: T2, human calcitonin receptor (hCTR) (Homo sapiens, UniProt P30988); experiment: cAMP production in 1321N1 cells with stable recombinant expression of human calcitonin receptor (hCTR); type: cell-based
T2 construct: expressed in transfected cells
T2 sequence (P30988 25-474): T1 sequence (P30988 25-474)
How it was run: as §1

[3] = cAMP, 1321N1 cells, assay buffer with 0.1% BSA, read-out: EC50 (pM) hAMYR3
[4] = cAMP, 1321N1 cells, assay buffer with 0.1% BSA, read-out: EC50 (pM) hCTR

Compound	Ratio (selectivity hAMYR vs hCTR, ratio of EC50 values at the two receptors) [1]	EC50 [1, 3]	EC50 [2, 4]	EC50 [1]	EC50 [2]
CC[C@H](C)[C@H](NC(=O)[C@@H]1CCCN1C(=O)CNC(=O)[C@H](Cc1ccccc1)NC(=O)[C@H](CC(N)=O)NC(=O)C(C)(C)NC(=O)[C@H](CO)NC(=O)[C@H](CO)NC(=O)[C@H](Cc1c[nH]cn1)NC(=O)[C@@H](NC(=O)[C@H](CC(C)C)NC(=O)[C@H](Cc1ccccc1)NC(=O)[C@H](CC(N)=O)NC(=O)[C@H](C)NC(=O)[C@H](CC(C)C)NC(=O)[C@H](CCCNC(=N)N)NC(=O)[C@H](CCC(N)=O)NC(=O)[C@@H](NC(=O)[C@H](C)NC(=O)[C@@H]1CSSC[C@H](NC(=O)[C@H](CCCCN)NC(=O)[C@@H](N)CCCCNC(=O)CC[C@H](NC(=O)CCCCCCCCCCCCCCCCC(=O)O)C(=O)O)C(=O)N[C@@H](CC(N)=O)C(=O)N[C@@H]([C@@H](C)O)C(=O)N[C@@H](C)C(=O)N[C@@H]([C@@H](C)O)C(=O)N1)[C@@H](C)O)C(C)C)C(=O)N[C@@H](CC(C)C)C(=O)N1CCC[C@H]1C(=O)N1CCC[C@H]1C(=O)N[C@H](C(=O)N[C@@H](CC(N)=O)C(=O)N[C@H](C(=O)NCC(=O)N[C@@H](CO)C(=O)N[C@@H](CC(N)=O)C(=O)N[C@H](C(=O)NC(C)(C)C(N)=O)[C@@H](C)O)C(C)C)[C@@H](C)O [Peptide 85, K(γE-C18diacid)K[CNTATC]ATQRLANFLVHSS(Aib)NFGPILPPTNVGSNT(Aib)-amide] (H-K([γGlu-C18 diacid])KCNTATCATQRLANFLVHSS[Aib]NFGPILPPTNVGSNT[Aib]-NH2; disulfide 3-8; N-terminus assumed)	4	806 pM	3100 pM	–	–
CC[C@H](C)[C@H](NC(=O)[C@@H]1CCCN1C(=O)CNC(=O)[C@H](Cc1ccccc1)NC(=O)[C@H](CC(N)=O)NC(=O)C(C)(C)NC(=O)[C@H](CO)NC(=O)[C@H](CO)NC(=O)[C@H](Cc1c[nH]cn1)NC(=O)C(C)(C)NC(=O)[C@H](CC(C)C)NC(=O)[C@H](Cc1ccccc1)NC(=O)[C@H](Cc1c[nH]cn1)NC(=O)[C@H](C)NC(=O)[C@H](CC(C)C)NC(=O)[C@H](CCCNC(=N)N)NC(=O)[C@H](CCC(N)=O)NC(=O)[C@@H](NC(=O)[C@H](C)NC(=O)[C@@H]1CSSC[C@H](NC(=O)[C@H](CCCCN)NC(=O)[C@@H](N)CCCCNC(=O)CC[C@H](NC(=O)CCCCCCCCCCCCCCCCC(=O)O)C(=O)O)C(=O)N[C@@H](CC(N)=O)C(=O)N[C@@H]([C@@H](C)O)C(=O)N[C@@H](C)C(=O)N[C@@H]([C@@H](C)O)C(=O)N1)[C@@H](C)O)C(=O)N[C@@H](CC(C)C)C(=O)N1CCC[C@H]1C(=O)N1CCC[C@H]1C(=O)N[C@H](C(=O)N[C@@H](CCC(=O)O)C(=O)N[C@H](C(=O)NCC(=O)N[C@@H](CO)C(=O)N[C@@H](CC(N)=O)C(=O)N[C@H](C(=O)N[C@@H](Cc1ccc(O)cc1)C(N)=O)[C@@H](C)O)C(C)C)[C@@H](C)O [Peptide 86, K(γE-C18diacid)K[CNTATC]ATQRLAHFL(Aib)HSS(Aib)NFGPILPPTEVGSNTY-amide] (H-K([γGlu-C18 diacid])KCNTATCATQRLAHFL[Aib]HSS[Aib]NFGPILPPTEVGSNTY-NH2; disulfide 3-8)	3	119 pM	311 pM	–	–
CC[C@H](C)[C@H](NC(=O)[C@@H]1CCCN1C(=O)CNC(=O)[C@H](Cc1ccccc1)NC(=O)[C@H](CC(N)=O)NC(=O)C(C)(C)NC(=O)[C@H](CO)NC(=O)[C@H](CO)NC(=O)[C@H](Cc1c[nH]cn1)NC(=O)[C@@H](NC(=O)[C@H](CC(C)C)NC(=O)[C@H](Cc1ccccc1)NC(=O)[C@H](CC(N)=O)NC(=O)[C@H](C)NC(=O)[C@H](CC(C)C)NC(=O)[C@H](CCCNC(=N)N)NC(=O)[C@H](CCC(N)=O)NC(=O)[C@@H](NC(=O)[C@H](C)NC(=O)[C@@H]1CSSC[C@H](NC(=O)[C@@H](N)CCCCNC(=O)CC[C@H](NC(=O)CC[C@H](NC(=O)CCCCCCCCCCCCCCCCC(=O)O)C(=O)O)C(=O)O)C(=O)N[C@@H](CC(N)=O)C(=O)N[C@@H]([C@@H](C)O)C(=O)N[C@@H](C)C(=O)N[C@@H]([C@@H](C)O)C(=O)N1)[C@@H](C)O)C(C)C)C(=O)N[C@@H](CC(C)C)C(=O)N1CCC[C@H]1C(=O)N1CCC[C@H]1C(=O)N[C@H](C(=O)NC(C)(C)C(=O)N[C@H](C(=O)NCC(=O)N[C@@H](CO)C(=O)N[C@@H](CC(N)=O)C(=O)N[C@H](C(=O)N[C@@H](Cc1ccc(O)cc1)C(N)=O)[C@@H](C)O)C(C)C)[C@@H](C)O [Peptide 89, K(γE-γE-C18diacid)[CNTATCJATQRLANFLVHSS(Aib)NFGPILPPT(Aib)VGSNTY-amide] (H-K([γGlu-γGlu-C18 diacid])CNTATCATQRLANFLVHSS[Aib]NFGPILPPT[Aib]VGSNTY-NH2; disulfide 2-7; N-terminus assumed)	–	–	–	447 pM	8240 pM

The next lines start with results.

Ratio (selectivity hAMYR vs hCTR, ratio of EC50 values at the two receptors) [1]	EC50 [1, 3]	EC50 [2, 4]	Compound	EC50 [1]	EC50 [2]
1	71 pM	74 pM	CC[C@H](C)[C@H](NC(=O)[C@@H]1CCCN1C(=O)CNC(=O)[C@H](Cc1ccccc1)NC(=O)[C@H](CC(N)=O)NC(=O)C(C)(C)NC(=O)[C@H](CO)NC(=O)[C@H](CO)NC(=O)[C@H](Cc1c[nH]cn1)NC(=O)C(C)(C)NC(=O)[C@H](CC(C)C)NC(=O)[C@H](Cc1ccccc1)NC(=O)[C@H](CC(N)=O)NC(=O)[C@H](C)NC(=O)[C@H](CC(C)C)NC(=O)[C@H](CCCNC(=N)N)NC(=O)[C@H](CCC(N)=O)NC(=O)[C@@H](NC(=O)[C@H](C)NC(=O)[C@@H]1CSSC[C@H](NC(=O)[C@H](CCCCN)NC(=O)[C@@H](N)CCCCNC(=O)CC[C@H](NC(=O)CCCCCCCCCCCCCCCCC(=O)O)C(=O)O)C(=O)N[C@@H](CC(N)=O)C(=O)N[C@@H]([C@@H](C)O)C(=O)N[C@@H](C)C(=O)N[C@@H]([C@@H](C)O)C(=O)N1)[C@@H](C)O)C(=O)N[C@@H](CC(C)C)C(=O)N1CCC[C@H]1C(=O)N1CCC[C@H]1C(=O)N[C@H](C(=O)N[C@@H](CC(N)=O)C(=O)N[C@H](C(=O)NCC(=O)N[C@@H](CO)C(=O)N[C@@H](CC(N)=O)C(=O)N[C@H](C(=O)N1CCC[C@H]1C(N)=O)[C@@H](C)O)C(C)C)[C@@H](C)O [Peptide 87, K(γE-C18diacid)K[CNTATC]ATQRLANFL(Aib)HSS(Aib)NFGPILPPTNVGSNTP-amide] (H-K([γGlu-C18 diacid])KCNTATCATQRLANFL[Aib]HSS[Aib]NFGPILPPTNVGSNTP-NH2; disulfide 3-8; N-terminus assumed)	–	–
4	281 pM	1170 pM	CC[C@H](C)[C@H](NC(=O)[C@@H]1CCCN1C(=O)CNC(=O)[C@H](Cc1ccccc1)NC(=O)[C@H](CC(N)=O)NC(=O)C(C)(C)NC(=O)[C@H](CO)NC(=O)[C@H](CO)NC(=O)[C@H](Cc1c[nH]cn1)NC(=O)[C@@H](NC(=O)[C@H](CC(C)C)NC(=O)[C@H](Cc1ccccc1)NC(=O)[C@H](CC(N)=O)NC(=O)[C@H](C)NC(=O)[C@H](CC(C)C)NC(=O)[C@H](CCCNC(=N)N)NC(=O)[C@H](CCC(N)=O)NC(=O)[C@@H](NC(=O)[C@H](C)NC(=O)[C@@H]1CSSC[C@H](NC(=O)[C@H](CCCCN)NC(=O)[C@@H](N)CCCCNC(=O)CC[C@H](NC(=O)CCCCCCCCCCCCCCCCC(=O)O)C(=O)O)C(=O)N[C@@H](CC(N)=O)C(=O)N[C@@H]([C@@H](C)O)C(=O)N[C@@H](C)C(=O)N[C@@H]([C@@H](C)O)C(=O)N1)[C@@H](C)O)C(C)C)C(=O)N[C@@H](CC(C)C)C(=O)NC(C)(C)C(=O)N1CCC[C@H]1C(=O)N[C@H](C(=O)N[C@@H](CC(N)=O)C(=O)N[C@H](C(=O)NCC(=O)N[C@@H](CO)C(=O)N[C@@H](CC(N)=O)C(=O)N[C@H](C(=O)N[C@@H](Cc1ccc(O)cc1)C(N)=O)[C@@H](C)O)C(C)C)[C@@H](C)O [Peptide 88, K(γE-C18diacid)K[CNTATC]ATQRLANFLVHSS(Aib)NFGPIL(Aib)PTNVGSNTY-amide] (H-K([γGlu-C18 diacid])KCNTATCATQRLANFLVHSS[Aib]NFGPIL[Aib]PTNVGSNTY-NH2; disulfide 3-8; N-terminus assumed)	–	–

— patent publication US20240067693A1, “POLYPEPTIDES AND USES THEREOF” (MEDIMMUNE LIMITED, priority 2020, published 2024)
